Data from patent publication US12208110B2 (priority 2020, dated 2025).

Assays:
Assay type in all cases: cell-based
[1] = system: RSV-Fluc (Recombinant Respiratory Syncytial virus strain A2 containing the firefly luciferase reporter); assay: microbe, parasite or virus in culture; conditions: human respiratory syncytial virus, NHBE, 72 h, read-out: RSV-Fluc EC50 (nM, NHBE)
[2] = system: SARS-CoV-2; assay: microbe, parasite or virus in culture; conditions: Severe acute respiratory syndrome coronavirus 2, 48 h
[3] = MT4 cytotoxicity analysis (CellTiter-Glo); conditions: human, MT4 CC50 (nM)
Protocol: Example 79: MT4 Cytotoxicity Analysis
3-fold serially diluted compound in DMSO, ranging from 2.5 uM to 10 mM, were added by acoustic transfer (Echo) in quadruplicate into black 384-well plates at 200 nl/well. After compound addition, 40 ul MT-4 cells at 80,000/ml were added to each well using a MicroFlo liquid dispenser (BioTek, Winooski, VT) and the cells were cultured for five days at 37° C. Following the incubation, cell viability was determined by adding 35 μL of CellTiter-Glo viability reagent and mixed thoroughly using ViaFlo 384 well workstation. The mixture was incubated for at least 10 minutes at 25° C., and the luminescence signal was quantified on an EnVision plate reader.

Molecule CCCCCCCCCCCCCCCCCCOC[C@H](COP(=O)(O)OC[C@H]1O[C@@](C#N)(c2ccc3c(N)ncnn23)[C@H](O)[C@@H]1O)N1Cc2ccccc2C1 [Example 1, ((2R,3S,4R,5R)-5-(4-aminopyrrolo[2,1-f][1,2,4]triazin-7-yl)-5-cyano-3,4-dihydroxytetrahydrofuran-2-yl)methyl ((R)-2-(isoindolin-2-yl)-3-(octadecyloxy)propyl) hydrogen phosphate] has an EC50 [1] of 570 nM, an EC50 [2] of 3200 nM and a CC50 at 5 days [3] of 20000 nM.
Molecule CCCCCCCCCCCCCCCCCCOC[C@H](COP(=O)(O)OC[C@H]1O[C@@](C#N)(c2ccc3c(N)ncnn23)[C@H](O)[C@@H]1O)N(C)Cc1ccccc1 [Example 2, ((2R,3S,4R,5R)-5-(4-aminopyrrolo[2,1-f][1,2,4]triazin-7-yl)-5-cyano-3,4-dihydroxytetrahydrofuran-2-yl)methyl ((R)-2-(benzyl(methyl)amino)-3-(octadecyloxy)propyl) hydrogen phosphate] has an EC50 [1] of 5000 nM, an EC50 [2] of 10000 nM and a CC50 at 5 days [3] of 25000 nM.
With CCCCCCCCCCCCCCCCCCOC[C@H](COP(=O)(O)OC[C@H]1O[C@@](C#N)(c2ccc3c(N)ncnn23)[C@H](O)[C@@H]1O)N(Cc1ccc(F)c(Cl)c1)C(C)=O [Example 10, ((2R,3S,4R,5R)-5-(4-aminopyrrolo[2,1-f][1,2,4]triazin-7-yl)-5-cyano-3,4-dihydroxytetrahydrofuran-2-yl)methyl ((R)-2-(N-(3-chloro-4-fluorobenzyl)acetamido)-3-(octadecyloxy)propyl) hydrogen phosphate] the EC50 [1] was 55 nM and the EC50 [2] was 3600 nM.
CCCCCCCCCCCCCCCCCCOC[C@H](COP(=O)(O)OC[C@H]1O[C@@](C#N)(c2ccc3c(N)ncnn23)[C@H](O)[C@@H]1O)N1Cc2ccccc2C1=O [Example 11, ((2R,3S,4R,5R)-5-(4-aminopyrrolo[2,1-f][1,2,4]triazin-7-yl)-5-cyano-3,4-dihydroxytetrahydrofuran-2-yl)methyl ((R)-3-(octadecyloxy)-2-(1-oxoisoindolin-2-yl)propyl) hydrogen phosphate] showed an EC50 [1] of 47 nM and an EC50 [2] of 3800 nM.
Work on CCCCCCCCCCCCCCCCSCCCOP(=O)(O)OC[C@H]1O[C@@](C#N)(c2ccc3c(N)ncnn23)[C@H](O)[C@@H]1O [Example 19, ((2R,3S,4R,5R)-5-(4-Aminopyrrolo[2,1-f][1,2,4]triazin-7-yl)-5-cyano-3,4-dihydroxytetrahydrofuran-2-yl)methyl (3-(hexadecylthio)propyl) hydrogen phosphate] yielded an EC50 [1] of 210 nM and an EC50 [2] of 3400 nM.
CCCCCCCCCCCCCCCCOCCOP(=O)(O)OC[C@H]1O[C@@](C#N)(c2ccc3c(N)ncnn23)[C@H](O)[C@@H]1O [Example 20, ((2R,3S,4R,5R)-5-(4-Aminopyrrolo[2,1-f][1,2,4]triazin-7-yl)-5-cyano-3,4-dihydroxytetrahydrofuran-2-yl)methyl (2-(hexadecyloxy)ethyl) hydrogen phosphate] showed an EC50 [1] of 200 nM and an EC50 [2] of 3800 nM.
CCCCCCCCCCCCCCCCCCOC[C@H](COCc1cc(F)cc(S(C)(=O)=O)c1)OP(=O)(O)OC[C@H]1O[C@@](C#N)(c2ccc3c(N)ncnn23)[C@H](O)[C@@H]1O [Example 33, ((2R,3S,4R,5R)-5-(4-aminopyrrolo[2,1-f][1,2,4]triazin-7-yl)-5-cyano-3,4-dihydroxytetrahydrofuran-2-yl)methyl ((R)-1-((3-fluoro-5-(methylsulfonyl)benzyl)oxy)-3-(octadecyloxy)propan-2-yl) hydrogen phosphate] gave an EC50 [1] of 120 nM.
CCCCCCCCCCCCCCCCCCOC[C@H](Cc1ccccc1)OP(=O)(O)OC[C@H]1O[C@@](C#N)(c2ccc3c(N)ncnn23)[C@H](O)[C@@H]1O [Example 40, ((2R,3S,4R,5R)-5-(4-aminopyrrolo[2,1-f][1,2,4]triazin-7-yl)-5-cyano-3,4-dihydroxytetrahydrofuran-2-yl)methyl ((S)-1-(octadecyloxy)-3-phenylpropan-2-yl) hydrogen phosphate] gave an EC50 [1] of 380 nM.
CCCCCCCCCCCCCCCCCCOC[C@H](COP(=O)(O)OC[C@H]1O[C@@](C#N)(c2ccc3c(N)ncnn23)[C@H](O)[C@@H]1O)OCc1cc(F)cc(C(=O)O)c1 [Example 44, 3-((((2R)-1-(((((2R,3S,4R,5R)-5-(4-aminopyrrolo[2,1-f][1,2,4]triazin-7-yl)-5-cyano-3,4-dihydroxytetrahydrofuran-2-yl)methoxy)(hydroxy)phosphoryl)oxy)-3-(octadecyloxy)propan-2-yl)oxy)methyl)-5-fluorobenzoic acid] showed an EC50 [1] of 120 nM and a CC50 at 5 days [3] of 25000 nM.
With CCCCCCCCCCCCCCCCCCOC[C@H](COP(=O)(O)OC[C@H]1O[C@@](C#N)(c2ccc3c(N)ncnn23)[C@H](O)[C@@H]1O)Oc1ccc(C#N)c(OC)c1F [Example 48, ((2R,3S,4R,5R)-5-(4-aminopyrrolo[2,1-f][1,2,4]triazin-7-yl)-5-cyano-3,4-dihydroxytetrahydrofuran-2-yl)methyl ((R)-2-(4-cyano-2-fluoro-3-methoxyphenoxy)-3-(octadecyloxy)propyl) hydrogen phosphate] the EC50 [1] was 17 nM and the CC50 at 5 days [3] was 160 nM.
In the case of CCCCCCCCCCCCCCCCCCOC[C@H](COP(=O)(O)OC[C@H]1O[C@@](C#N)(c2ccc3c(N)ncnn23)[C@H](O)[C@@H]1O)Oc1cc(C)c(C#N)cc1F [Example 49, ((2R,3S,4R,5R)-5-(4-aminopyrrolo[2,1-f][1,2,4]triazin-7-yl)-5-cyano-3,4-dihydroxytetrahydrofuran-2-yl)methyl ((R)-2-(4-cyano-2-fluoro-5-methylphenoxy)-3-(octadecyloxy)propyl) hydrogen phosphate], the EC50 [1] is reported as 23 nM and the CC50 at 5 days [3] is reported as 1100 nM.
With CCCCCCCCCCCCCCCCCCOC[C@H](COP(=O)(O)OC[C@H]1O[C@@](C#N)(c2ccc3c(N)ncnn23)[C@H](O)[C@@H]1O)OCc1cc(F)c(Cl)c(C#N)c1 [Example 50, ((2R,3S,4R,5R)-5-(4-aminopyrrolo[2,1-f][1,2,4]triazin-7-yl)-5-cyano-3,4-dihydroxytetrahydrofuran-2-yl)methyl ((R)-2-((4-chloro-3-cyano-5-fluorobenzyl)oxy)-3-(octadecyloxy)propyl) hydrogen phosphate] the EC50 [1] was 24 nM and the CC50 at 5 days [3] was 640 nM.
In the case of CCCCCCCCCCCCCCCCCCOC[C@H](COP(=O)(O)OC[C@H]1O[C@@](C#N)(c2ccc3c(N)ncnn23)[C@H](O)[C@@H]1O)OCc1cc(F)c(CCC)c(C#N)c1 [Example 51, ((2R,3S,4R,5R)-5-(4-aminopyrrolo[2,1-f][1,2,4]triazin-7-yl)-5-cyano-3,4-dihydroxytetrahydrofuran-2-yl)methyl ((R)-2-((3-cyano-5-fluoro-4-propylbenzyl)oxy)-3-(octadecyloxy)propyl) hydrogen phosphate], the EC50 [1] is reported as 100 nM and the CC50 at 5 days [3] is reported as 6700 nM.
CCCCCCCCCCCCCCCCCCOC[C@H](COP(=O)(O)OC[C@H]1O[C@@](C#N)(c2ccc3c(N)ncnn23)[C@H](O)[C@@H]1O)Oc1cc(OC)c(C#N)cc1F [Example 52, ((2R,3S,4R,5R)-5-(4-aminopyrrolo[2,1-f][1,2,4]triazin-7-yl)-5-cyano-3,4-dihydroxytetrahydrofuran-2-yl)methyl ((R)-2-(4-cyano-2-fluoro-5-methoxyphenoxy)-3-(octadecyloxy)propyl) hydrogen phosphate] gave an EC50 [1] of 17 nM and a CC50 at 5 days [3] of 370 nM.
For CCCCCCCCCCCCCCCCCCOC[C@H](COP(=O)(O)OC[C@H]1O[C@@](C#N)(c2ccc3c(N)ncnn23)[C@H](O)[C@@H]1O)OCc1cc(F)c(C)c(C#N)c1 [Example 53, ((2R,3S,4R,5R)-5-(4-aminopyrrolo[2,1-f][1,2,4]triazin-7-yl)-5-cyano-3,4-dihydroxytetrahydrofuran-2-yl)methyl ((R)-2-((3-cyano-5-fluoro-4-methylbenzyl)oxy)-3-(octadecyloxy)propyl) hydrogen phosphate], the EC50 [1] was 25 nM and the CC50 at 5 days [3] was 430 nM.
CCCCCCCCCCCCCCCCCCOC[C@H](COP(=O)(O)OC[C@H]1O[C@@](C#N)(c2ccc3c(N)ncnn23)[C@H](O)[C@@H]1O)OCc1cc(C#N)c(Cl)c(OC)c1 [Example 54, ((2R,3S,4R,5R)-5-(4-aminopyrrolo[2,1-f][1,2,4]triazin-7-yl)-5-cyano-3,4-dihydroxytetrahydrofuran-2-yl)methyl ((R)-2-((4-chloro-3-cyano-5-methoxybenzyl)oxy)-3-(octadecyloxy)propyl) hydrogen phosphate] showed an EC50 [1] of 64 nM and a CC50 at 5 days [3] of 1300 nM.
CCCCCCCCCCCCCCCCCCN(C)C(=O)[C@H](COP(=O)(O)OC[C@H]1O[C@@](C#N)(c2ccc3c(N)ncnn23)[C@H](O)[C@@H]1O)OCc1cc(F)cc(C#N)c1 [Example 56, ((2R,3S,4R,5R)-5-(4-aminopyrrolo[2,1-f][1,2,4]triazin-7-yl)-5-cyano-3,4-dihydroxytetrahydrofuran-2-yl)methyl ((S)-2-((3-cyano-5-fluorobenzyl)oxy)-3-(methyl(octadecyl)amino)-3-oxopropyl) hydrogen phosphate] gave an EC50 [1] of 13 nM and a CC50 at 5 days [3] of 200 nM.
CCCCCCCCCCCCCCCCOCCOP(=O)(O)OC[C@H]1O[C@@](C#N)(c2ccc3c(N)ncnn23)[C@H](O)[C@@H]1O [Example 66, [(2R,3S,4R,5R)-5-(4-Aminopyrrolo[2,1-f][1,2,4]triazin-7-yl)-5-cyano-3,4-dihydroxy-tetrahydrofuran-2-yl]methyl 2-hexadecoxyethyl hydrogen phosphate] showed a CC50 at 5 days [3] of 29000 nM.
